Key:
[1] = target: T1, TEC (Homo sapiens, UniProt P42680); assay: TEC biochemical assay (Caliper LabChip)
T1 sequence (P42680 1-631): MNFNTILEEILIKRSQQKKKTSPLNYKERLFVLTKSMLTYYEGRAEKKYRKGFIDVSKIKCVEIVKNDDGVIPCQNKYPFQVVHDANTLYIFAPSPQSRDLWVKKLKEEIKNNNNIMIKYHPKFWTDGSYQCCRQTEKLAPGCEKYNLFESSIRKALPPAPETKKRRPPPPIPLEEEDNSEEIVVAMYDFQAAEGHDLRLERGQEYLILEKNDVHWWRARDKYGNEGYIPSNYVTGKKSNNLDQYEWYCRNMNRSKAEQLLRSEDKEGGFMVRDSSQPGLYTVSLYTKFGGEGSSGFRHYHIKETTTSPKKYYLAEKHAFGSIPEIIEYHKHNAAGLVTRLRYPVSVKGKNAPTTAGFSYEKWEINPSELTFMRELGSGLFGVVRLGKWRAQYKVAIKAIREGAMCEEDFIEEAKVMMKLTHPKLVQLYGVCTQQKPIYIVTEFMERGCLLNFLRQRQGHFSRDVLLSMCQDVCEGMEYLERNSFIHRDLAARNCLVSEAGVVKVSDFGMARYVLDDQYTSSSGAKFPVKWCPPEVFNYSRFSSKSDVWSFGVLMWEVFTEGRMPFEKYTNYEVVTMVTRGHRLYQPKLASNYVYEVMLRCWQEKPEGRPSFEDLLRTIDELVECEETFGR

[2] = test system: TEC-family kinases (ITK, TEC, and TXK); assay: Cellular IL-2 production assay in Jurkat cells; assay type: cell-based; conditions: Homo sapiens, CD3/CD28 stimulation, read-out: IC50, IL2-Production
Method: The cellular IL-2 Production assay was carried out using Jurkat cells. Upon CD3/CD28 stimulation overnight in the presence of various concentrations of compound, the IL-2 content in the conditioned media was measured by ELISA, and compound IC50 was determined.

[3] = test system: T-cell dependent antibody response; assay: T-cell dependent antibody response (TDAR) assay with KLH; conditions: for anti-KLH IgG mean percent difference compared to vehicle controls / anti-KLH IgM mean percent difference compared to vehicle controls: 30 mg/kg/day
[4] = test system: TMD-8 cells (BTK); assay: BTK-dependent TMD-8 cell proliferation assay; assay type: cell-based; conditions: Homo sapiens, TMD8, Cellular
Method: After 3 days, cell viability was measured using Cell Titer Glo.

[5] = test system: mouse B cells; assay: Mouse B cell proliferation assay; assay type: cell-based; conditions: Cellular
Method: In the Mouse B cell assay, B cells are purified from mouse splenocytes and plated in the tissue culture plates with supplement of anti-IgM and m-IL4. […] After 3 days, cell viability was measured using Cell Titer Glo.

[6] = target: T2, TXK (Homo sapiens, UniProt P42681); assay: TXK biochemical assay (Caliper LabChip)
T2 sequence (P42681 1-527): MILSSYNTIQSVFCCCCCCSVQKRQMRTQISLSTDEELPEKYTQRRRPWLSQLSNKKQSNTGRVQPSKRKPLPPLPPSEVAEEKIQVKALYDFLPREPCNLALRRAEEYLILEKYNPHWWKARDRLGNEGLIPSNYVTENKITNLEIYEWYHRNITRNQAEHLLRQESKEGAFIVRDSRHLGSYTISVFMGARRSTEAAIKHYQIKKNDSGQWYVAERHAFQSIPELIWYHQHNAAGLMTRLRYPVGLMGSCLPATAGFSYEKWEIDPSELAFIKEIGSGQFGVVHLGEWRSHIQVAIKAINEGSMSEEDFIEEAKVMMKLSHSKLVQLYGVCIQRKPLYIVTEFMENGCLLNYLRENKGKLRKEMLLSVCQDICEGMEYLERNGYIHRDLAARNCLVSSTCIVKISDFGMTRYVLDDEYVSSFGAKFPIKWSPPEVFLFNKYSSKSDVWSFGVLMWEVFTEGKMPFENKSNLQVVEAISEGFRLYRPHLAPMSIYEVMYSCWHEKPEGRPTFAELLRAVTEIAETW

[7] = test system: mouse CD4+ T cells; assay: Mouse CD4 T cell proliferation assay; assay type: cell-based; conditions: Cellular
[8] = test system: primary human CD4+ T cells; assay: Human CD4 T cell proliferation assay; assay type: cell-based; conditions: Cellular
Method: In the Human CD4 T cell assay, primary human CD4+ T cells isolated from a leukopak were cultured in the presence of anti-CD3/anti-CD28 beads to stimulate T cell proliferation. After 4 days, cell viability was measured using Cell Titer Glo.

[9] = Pharmacokinetic (PK) modeling of flat dosing schedules
[10] = Iso-electric focussing (Novex IEF) analysis; assay type: physicochemical; conditions: estimated from staining positions against the IEF 3-10 marker
Method: Non-reduced samples of Protein A purified antibody were electrophoresed as described below.
5 μg of Protein A purified samples were electrophoresed on a 1.0 mm Novex pH 3-10 gradient gel (Invitrogen, EC66552BOX) using manufacturers recommended running conditions. A 10 μl aliquot of IEF pH 3-10 markers (Invitrogen, 39212-01) was included on the gel. Once electrophoresed, gels were fixed with 10% TCA solution for 30 min and then stained with InstantBlue (TripleRed, ISB01L) over night at room temperature. Images of the stained gels were analysed on a BioSpectrum Imaging System (UVP).

[11] = target: human PD-1 protein (Homo sapiens, UniProt Q15116); assay: Biacore binding on human PD-1 protein; conditions: Biacore method
Method: The binding of an exemplary humanized anti-PD-1 antibodies including Clone B and Clone E as shown in Table 1 on human PD-1 protein was measured using Biacore method.

[12] = target: T3, human PD-1 protein (human, UniProt Q15116 25-167, limits assumed); assay: Biacore, human PD-1 protein
T3 construct: Soluble protein in the Biacore assay

[13] = target: cynomolgus PD-1 protein (cynomolgus, UniProt B0LAJ3 25-170); assay: Biacore, cynomolgus PD-1
[14] = target: T4, human PD-1 expressed on 300.19 cells (human, UniProt Q15116 25-288); assay: blocking of PD-L1 binding on human PD-1-expressing 300.19 cells; competitor PD-L1
T4 construct: whole, on cells; also called human PD-1-expressing 300.19 cells
T4 sequence (Q15116 25-288): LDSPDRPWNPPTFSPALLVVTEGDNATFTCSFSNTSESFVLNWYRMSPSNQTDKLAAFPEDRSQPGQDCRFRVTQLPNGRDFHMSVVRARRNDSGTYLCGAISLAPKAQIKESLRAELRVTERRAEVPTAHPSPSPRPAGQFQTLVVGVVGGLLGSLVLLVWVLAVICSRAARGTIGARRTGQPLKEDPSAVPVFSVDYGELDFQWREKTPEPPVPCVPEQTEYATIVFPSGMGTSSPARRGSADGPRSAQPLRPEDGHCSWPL

Chain of human PD-1 protein (Homo sapiens, UniProt Q15116) (Q15116 25-288): as above
T3 sequence (Q15116 25-167 limits assumed): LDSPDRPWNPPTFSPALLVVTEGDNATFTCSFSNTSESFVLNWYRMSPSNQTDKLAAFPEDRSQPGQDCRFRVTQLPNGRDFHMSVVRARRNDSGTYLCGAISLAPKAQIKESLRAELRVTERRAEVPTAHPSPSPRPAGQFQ
Chain of cynomolgus PD-1 protein (B0LAJ3 entry or part of it limits assumed): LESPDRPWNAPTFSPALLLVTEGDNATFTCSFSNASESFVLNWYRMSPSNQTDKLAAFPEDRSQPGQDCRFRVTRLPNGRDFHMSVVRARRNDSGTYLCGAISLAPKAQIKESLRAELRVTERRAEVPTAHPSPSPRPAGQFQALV

With Cc1cc(C(=O)Nc2nc3cccc(Cl)c3n2[C@@H]2CCCCN(C(=O)/C=C/CN(C)C)C2)ccn1 [Compound A, (R,E)-N-(7-chloro-1-(1-(4-(dimethylamino)but-2-enoyl)azepan-3-yl)-1Hbenzo[d]imidazol-2-yl)-2-methylisonicotinamide] the IC50 [1] was 0.9 nM, the “IC50, TEC” value ([1]; Biochemical) was “single digit nM” and the IC50 [2] was 21 nM. For the same molecule, the “anti-KLH IgG mean percent difference compared to vehicle controls” value (shortened to “anti-KLH IgG mean percent difference”) ([3]; female rats, study day 19) was −96%, the “anti-KLH IgM mean percent difference compared to vehicle controls” value (“anti-KLH IgM mean percent difference” below) ([3]; female rats, study day 19) was −88% and the “anti-KLH IgG mean percent difference” value ([3]; female rats, study day 21) was −98%. The “anti-KLH IgM mean percent difference” value ([3]; female rats, study day 21) was −75%, the “anti-KLH IgG mean percent difference” value ([3]; female rats, study day 23) was −97% and the “anti-KLH IgM mean percent difference” value ([3]; female rats, study day 23) was −71%. The “anti-KLH IgG mean percent difference” value ([3]; female rats, study day 25) was −96%, the “anti-KLH IgM mean percent difference” value ([3]; female rats, study day 25) was −63% and the “anti-KLH IgG mean percent difference” value ([3]; female rats, study day 36) was −69%. For the same molecule, the “anti-KLH IgM mean percent difference” value ([3]; female rats, study day 36) was −67%, the “decrease of anti-KLH antibody production after withdrawal of treatment” value ([3]; male and female rats, recovery day 42 and 53) was “reversible” and the “anti-KLH IgG mean percent difference” value ([3]; male rats, study day 19) was −78%. For the same molecule, the “anti-KLH IgM mean percent difference” value ([3]; male rats, study day 19) was −67%, the “anti-KLH IgG mean percent difference” value ([3]; male rats, study day 21) was −84% and the “anti-KLH IgG mean percent difference” value ([3]; male rats, study day 23) was −80%. For the same molecule, the “anti-KLH IgG mean percent difference” value ([3]; male rats, study day 25) was −83%, the IC50 [4] was 224 nM and the IC50 [5] was 295 nM. The IC50 [6] was 2 nM, the “IC50, TXK” value ([6]; Biochemical) was “single digit nM” and the IC50 [7] was 107 nM. The IC50 [8] was 140 nM.

In the case of “BAP049-Clone E: humanized anti-programmed death-1 (PD-1) IgG4 monoclonal antibody; sequences in Table 1”, the Half-Life ([9]; 46 patients in PK dataset) is reported as 20 [17, 23] days, the “IIV of CL” value ([9]; 46 patients in PK dataset) is reported as 62% and the “IIV of Half-Life” value ([9]; 46 patients in PK dataset) is reported as 64%. The “IIV of Volume of distribution at SS” value ([9]; 46 patients in PK dataset) was 22%, the “Volume of distribution at SS” value ([9]; 46 patients in PK dataset) was 7.2 [6.5, 7.9] L and the “patients with Cmin above EC50” value ([9]; flat dose) was “Over 99.5%”. The “patients with Cmin above EC90” value ([9]; flat dose) was “over 93%”, the CL ([9]; flat dosing schedules, 46 patients in PK dataset) was 10.9 [8.9, 13.2] mL/h and the “Basic charge isoforms (pI)” value [10] was 7.55. For the same molecule, the “pI of predominant charge isoform” value [10] was 7.5, the Ka [11] was 278000 M⁻¹ s⁻¹ and the Kd ([11]; rate constant) was 0.000213 s⁻¹.

B1: BAP049-Clone-E (antibody, human IgG4 S228P, kappa, V domains shown)
VH: EVQLVQSGAEVKKPGESLRISCKGSGYTFTTYWMHWVRQATGQGLEWMGNIYPGTGGSNFDEKFKNRVTITADKSTSTAYMELSSLRSEDTAVYYCTRWTTGTGAYWGQGTTVTVSS
VL: EIVLTQSPATLSLSPGERATLSCKSSQSLLDSGNQKNFLTWYQQKPGQAPRLLIYWASTRESGVPSRFSGSGSGTDFTFTISSLEAEDAATYYCQNDYSYPYTFGQGTKVEIKR
notes: Humanized IgG4(S228P)/kappa; also called Antibody B; exemplary humanized anti-PD-1 antibody
Work on B1 yielded a Kd [12] of 0.0827 nM, a Kd [13] of 0.093 nM and an IC50 [14] of 0.94 nM.
